This passage reports MIC results from ChEMBL document CHEMBL4316589, “Attachment of a 5-nitrofuroyl moiety to spirocyclic piperidines produces non-toxic nitrofurans that are efficacious in vitro against multidrug-resistant Mycobacterium tuberculosis” (Eur J Med Chem, 2019).

Holding throughout (assay type): functional
The subject of assay [1] is Mycobacterium tuberculosis. Description: Antimycobacterial activity against patient-derived multidrug-resistant Mycobacterium tuberculosis 7106 measured after 7 days by resazurin dye-based assay. Conditions: Mycobacterium tuberculosis, 7106, 168 h. A general note: Resazurin is reduced to fluorescent resorufin, in cell work by metabolically active cells.
For assay [2], the system named is Mycobacterium tuberculosis. Description: Antimycobacterial activity against patient-derived multidrug-resistant Mycobacterium tuberculosis 2712 measured after 7 days by resazurin dye-based assay. Conditions: Mycobacterium tuberculosis, 2712, 168 h.
The subject of assay [3] is Mycobacterium tuberculosis. Kind of assay: Antimycobacterial activity against patient-derived multidrug-resistant Mycobacterium tuberculosis 5023 measured after 7 days by resazurin dye-based assay. The following applies: Mycobacterium tuberculosis, 5023, 168 h.

The term MIC denotes the least concentration at which growth counts as inhibited. Low values mean a more susceptible organism, high ones a less susceptible organism.

Converted amounts (≈) assume the structure as drawn.

For the compound `O=C(c1ccc([N+](=O)[O-])o1)N1CCC2(CC1)CC(OCc1ccc(F)cc1)CCO2` (stereo unspecified), the minimal inhibitory concentration (MIC) in assay [1] turned out to be 6.2 µg/mL (≈ 14.8 µM); in assay [2] it was 25 µg/mL (≈ 59.7 µM); in assay [3] it was 6.2 µg/mL (≈ 14.8 µM).

For the compound `Cc1ccc(CC2CCOC3(CCN(C(=O)c4ccc([N+](=O)[O-])o4)CC3)C2)cc1` (stereo unspecified), the MIC stood at 100 µg/mL (≈ 251 µM) in assay [1], 100 µg/mL (≈ 251 µM) in assay [2] and 3.1 µg/mL (≈ 7.78 µM) in assay [3].

In the case of `O=C(c1ccc([N+](=O)[O-])o1)N1CCC2(CC1)CC(Cc1nc(C3CC3)no1)CCO2` (stereo unspecified), the MIC in assay [1] was 6.2 µg/mL (≈ 14.9 µM); in assay [2], 3.1 µg/mL (≈ 7.44 µM); in assay [3] it was 12.5 µg/mL (≈ 30 µM).

Take `O=C(c1ccc([N+](=O)[O-])o1)N1CCC2(CC1)CC(Cc1nc(-c3cccnc3)no1)CCO2` (stereo unspecified): the values for the minimal inhibitory concentration (MIC) in assay [1], in assay [2] and in assay [3] were 6.2 µg/mL (≈ 13.7 µM), 1.6 µg/mL (≈ 3.53 µM) and 3.1 µg/mL (≈ 6.84 µM), respectively.

Turning to `COc1ccc(CC2CCOC3(CCN(C(=O)c4ccc([N+](=O)[O-])o4)CC3)C2)cc1` (stereo unspecified), the minimal inhibitory concentration (MIC) was 3.1 µg/mL (≈ 7.48 µM) in assay [1], 6.2 µg/mL (≈ 15 µM) in assay [2] and 3.1 µg/mL (≈ 7.48 µM) in assay [3].

For the compound `COCCc1noc(CC2CCOC3(CCN(C(=O)c4ccc([N+](=O)[O-])o4)CC3)C2)n1` (stereo unspecified), the minimal inhibitory concentration (MIC) in assay [1] worked out at 25 µg/mL (≈ 57.5 µM); in assay [2], 12.5 µg/mL (≈ 28.8 µM); in assay [3], 12.5 µg/mL (≈ 28.8 µM).

Take `O=C(c1ccc([N+](=O)[O-])o1)N1CCC2(CCCCO2)CC1`: the MIC was 25 µg/mL (≈ 84.9 µM) in assay [1], 6.2 µg/mL (≈ 21.1 µM) in assay [2] and 25 µg/mL (≈ 84.9 µM) in assay [3].
